Test results reported in US20220348590A1, “CYCLOOXYGENASE-2 INHIBITORS AND USES THEREOF” (The Board Institute, Inc., priority 2019, published 2022).
≈ marks a conversion by molar mass, not a printed value. Read-outs that look alike come from different tables or passages of the source.

Tests used:
ovine COX-1 (oCOX-1) = biological target: T1, ovine COX-1 (oCOX-1) (Ovis aries, UniProt P05979); test: LCMS-based COX-1 enzymatic inhibition assay (PGE2 quantification); assay type: biochemical; conditions: 10 minutes
T1 construct: purchased Cayman Chemicals (Ann Arbor, Mich.)
T1 sequence (P05979 25-600): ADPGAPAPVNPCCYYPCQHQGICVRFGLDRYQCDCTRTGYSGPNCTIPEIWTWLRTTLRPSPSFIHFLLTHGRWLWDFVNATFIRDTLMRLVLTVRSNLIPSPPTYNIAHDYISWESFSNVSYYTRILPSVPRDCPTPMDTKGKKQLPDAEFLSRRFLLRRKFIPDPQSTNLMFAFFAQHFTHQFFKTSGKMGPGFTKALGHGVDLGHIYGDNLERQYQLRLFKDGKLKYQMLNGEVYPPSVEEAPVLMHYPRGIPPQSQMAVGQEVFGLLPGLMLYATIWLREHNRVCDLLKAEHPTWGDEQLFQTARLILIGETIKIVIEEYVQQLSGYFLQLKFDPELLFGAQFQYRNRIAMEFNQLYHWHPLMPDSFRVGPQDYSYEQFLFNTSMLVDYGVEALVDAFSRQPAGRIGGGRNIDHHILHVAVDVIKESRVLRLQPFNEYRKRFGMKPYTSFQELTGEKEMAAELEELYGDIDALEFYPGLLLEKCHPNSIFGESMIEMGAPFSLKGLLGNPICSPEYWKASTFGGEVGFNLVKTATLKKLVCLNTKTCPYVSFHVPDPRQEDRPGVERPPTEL
Method in brief: (§1)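 Ovine COX-1 (0.1 μg) or human recombinant COX2 (0.2 μg) in 100 mM Tris.HCl pH 8.0 with hematin and epinephrine, preincubated with inhibitor 10 min at 37 °C. Reaction with 5 μM arachidonic acid stopped after 2 min with HCl; PGE2 quantified by LC-MS-MS. IC50 from 12 concentrations in triplicate.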

[1] = Human Microsome Stability; assay type: in vitro ADME; conditions: human microsomes
[2] = Mouse Microsome Stability; assay type: in vitro ADME; conditions: mouse microsomes
[3] = biological target: T2, human recombinant COX2 (hCOX2) (UniProt P35354); test: LCMS-based COX2 enzymatic inhibition assay (PGE2 quantification); assay type: biochemical; parameters: COX2 2 minutes pge2/pge2d4 area ratio Avg; other: 2 minutes; readout pge2/pge2d4 area ratio; average; COX2 2 minutes pge2/pge2d4 area ratio Avg; LLE; average LLE; COX2 2 minutes pge2 area (counts) Avg; readout pge2 area (counts); other: 2 min; "ovine COX2 (oCOX2), human recombinant COX2 (hCOX2)"; conditions: for COX2 2 minutes pge2/pge2d4 area ratio Avg. LLE / COX2 2 minutes pge2 area (counts) Avg. LLE / COX2 10 minutes pge2 area (counts) Avg. LLE: average LLE; for IC50: average
T2 sequence (P35354 1-604): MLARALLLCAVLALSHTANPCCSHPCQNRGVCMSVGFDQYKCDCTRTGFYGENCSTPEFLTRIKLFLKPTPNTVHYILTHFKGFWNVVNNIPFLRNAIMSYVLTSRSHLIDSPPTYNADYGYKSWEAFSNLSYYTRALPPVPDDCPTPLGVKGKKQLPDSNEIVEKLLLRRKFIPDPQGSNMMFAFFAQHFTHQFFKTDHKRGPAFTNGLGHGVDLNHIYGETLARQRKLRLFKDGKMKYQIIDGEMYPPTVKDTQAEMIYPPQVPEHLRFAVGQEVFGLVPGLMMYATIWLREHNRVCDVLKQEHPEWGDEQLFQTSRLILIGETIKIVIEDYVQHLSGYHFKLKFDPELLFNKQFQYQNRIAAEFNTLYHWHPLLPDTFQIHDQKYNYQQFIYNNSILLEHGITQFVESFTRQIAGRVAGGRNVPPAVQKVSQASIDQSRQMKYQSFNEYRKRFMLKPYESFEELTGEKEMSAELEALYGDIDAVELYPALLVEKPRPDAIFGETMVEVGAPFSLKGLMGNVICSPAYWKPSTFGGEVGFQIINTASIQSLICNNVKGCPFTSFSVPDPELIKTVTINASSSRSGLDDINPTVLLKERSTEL
Method in brief: as §1

[4] = biological target: T2, human recombinant COX2 (hCOX2); test: as above; assay type: biochemical; parameters: improvement in potency; other: COX2 potency relative to MC1 / earlier ligand; comparator not always stated; other: vs MC1 (MC-1); conditions: COX2 potency relative to MC1 / earlier ligand; comparator not always stated
Method: (§2) We have adapted a previously reported cyclooxygenase enzymatic assay utilizing LCMS quantification of PGE2 as the product of COX-1 and COX2 catalyzed conversion of arachidonic acid to evaluate the binding properties of newly synthesized ligands [Cao, 2011]. These optimized and miniaturized (384-well plates) LCMS-based COX-1 and COX2 enzymatic assays enabled us to quickly evaluate newly synthesized ligands for COX2 binding affinity and selectivity vs COX-1. Using a shorter ligand-enzyme incubation time in the LCMS assay (2 minutes vs 10 minutes) also permitted us to prioritize ligands with faster binding kinetics. Considering the relatively slow on-rate kinetics of known coxibs, due to their 3-step binding mechanism [Marnett, 2009], we believe that optimizing this critical parameter will be key to the successful development of a COX2 PET tracer. Using these enzymatic assays, we have evaluated>200 newly synthesized ligands against COX2 and >20 ligands against COX-1. Another critical property necessary for a good PET radiotracer is to have low non-specific binding (NSB) to increase the free fraction and maximize the signal to noise ratio. This property can be evaluated using in-vitro protein binding assays, and we have now evaluated>50 newly synthesized ligands in mouse, rat and human plasma protein binding (PPB) assays as well as >15 ligands in a mouse brain protein binding (BPB) assay.
Ovine COX-1 (oCOX-1), ovine COX2 (oCOX2), human recombinant COX2 (hCOX2), arachidonic acid, PGE2, d4-PGD2, and […] (labeled with deuterium atoms at positions 3 and 4) were purchased from Cayman Chemicals (Ann Arbor, Mich.). The cofactors (−)epinephrine and hematin, and the COX inhibitors indomethacin, resveratrol and diclofenac were purchased from Sigma-Aldrich (St. Louis, Mo.). Celecoxib was purchased from 3B PharmaChem International (Wuhan, China). All organic solvents were HPLC grade or better and were purchased from Thermo Fisher (Hanover Park, Ill.). Formic acid was purchased from EMD Chemicals (San Diego, Calif.). Purified water was prepared by using a Millipore Milli-Q purification system (Millipore, Billerica, Mass.). All other chemicals and solvents were ACS reagent grade, unless stated otherwise.
In an Eppendorf tube, 146 μL of 100 mM Tris.HCl (pH 8.0) buffer, 2 μL of 100 μM hematin (co-factor) and 10 μL of 40 mM L-epinephrine (co-factor) were mixed at room temperature. […]
The concentration of PGE2 in each sample was measured using LC-MS-MS, and the percent of COX inhibition by each test solution was determined by comparing the amount of PGE2 produced in the experiment with that produced in the negative control incubation. The formation of PGD2 was measured for quality control purposes, since the levels of PGD2 should be proportional to those of PGE2. […]

[5] = mouse plasma protein binding (PPB) assay; assay type: in vitro ADME; conditions: average, read-out: Mouse Plasma Protein Binding % Bound Avg (converted)
Method: as §2

[6] = rat plasma protein binding (PPB) assay; assay type: in vitro ADME; conditions: average, read-out: Rat Plasma Protein Binding % Bound Avg (converted)
Method: as §2

PBS Solubility (no DMSO) = assay type: physicochemical; conditions: aqueous buffer, thermodynamic from solid, average
[7] = Mouse Plasma Protein Stability (% Remaining); assay type: in vitro ADME; conditions: average
[8] = Rat Plasma Protein Stability (% Remaining); assay type: in vitro ADME; conditions: average
Rat Microsome Stability = assay type: in vitro ADME; conditions: rat microsomes
[9] = in-vitro protein binding: free fraction / fraction unbound, matrix and species not given; assay type: in vitro ADME
Method: as §2

MDR1 = test: MDR1-MDCKII permeability and efflux; assay type: in vitro ADME; conditions: dog, MDCK-MDR1
[10] = pge2 area (counts), head of this section not shown, inferred
[11] = 2 minutes, readout pge2/pge2d4 area ratio
[12] = 2 minutes, readout pge2/pge2d4 area ratio, read-out: COX2 2 minutes pge2/pge2d4 area ratio Avg. IC50
[13] = 2 minutes, readout pge2 area (counts)
[14] = 2 minutes, readout pge2 area (counts), read-out: COX2 2 minutes pge2 area (counts) Avg. IC50
[15] = 10 minutes, readout pge2 area (counts)
[16] = 10 minutes, readout pge2 area (counts), read-out: COX2 10 minutes pge2 area (counts) Avg. IC50
[17] = head of this section not shown, inferred
[18] = pge2 area (counts), head of this section not shown, inferred, read-out: COX1 10 minutes pge2 area (counts) Avg. IC50
[19] = readout pge2/pge2d4 area ratio, average, read-out: COX1 10 minutes pge2/pge2d4 area ratio Avg. IC50

| SMILES | COX1 10 minutes pge2 area (counts) Avg. LLE (ovine COX-1 (oCOX-1); [10]) | Human Microsome Stability % Remaining Avg [1] | Mouse Microsome Stability % Remaining Avg [2] | COX2 2 minutes pge2/pge2d4 area ratio Avg. LLE [3, 11] | IC50 [3, 12] | COX2 2 minutes pge2 area (counts) Avg. LLE [3, 13] | IC50 [3, 14] | COX2 10 minutes pge2 area (counts) Avg. LLE [3, 15] | IC50 [3, 16] | other results |
| --- | --- | --- | --- | --- | --- | --- | --- | --- | --- | --- |
| CS(=O)(=O)c1ccc(-c2cncc(NCc3ccco3)n2)cc1 [Compound 120] | 2.724 | 32.4% | 1.6% | 5.371 | 118 nM | 5.44 | 124 nM | 6.397 | 11.5 nM |  |
| COc1cc(OCc2cccs2)nc(-c2ccc(S(C)(=O)=O)cc2)n1 [Compound 331] |  |  |  |  |  |  |  |  |  | improvement in potency [4]: 10 fold |
| CS(=O)(=O)c1ccc(-c2cncc(NCc3ccc(F)cc3)n2)cc1 [Compound 96] | 2.128 | 54.9% | 30.5% | 4.85 | 74.2 nM | 4.897 | 85 nM | 5.83 | 7.94 nM | COX1 10 minutes pge2/pge2d4 area ratio Avg. LLE (ovine COX-1 (oCOX-1); [17]): 2.186; IC50 (ovine COX-1 (oCOX-1); [18]): 39000 nM; IC50 (ovine COX-1 (oCOX-1); [19]): 34200 nM |
| COc1ncc(NCc2ccco2)nc1-c1ccc(S(C)(=O)=O)cc1 [Compound 43] |  |  |  | 5.827 | 19.5 nM | 5.859 | 18.5 nM |  |  | COX1 10 minutes pge2 area (counts) Avg. LLE (ovine COX-1 (oCOX-1); readout pge2 area (counts), average LLE): 2.44; IC50 (ovine COX-1 (oCOX-1); readout pge2 area (counts), average, read-out: COX1 10 minutes pge2 area (counts) Avg. IC50): 42700 nM; fraction unbound [5]: 0.046; fraction unbound [6]: 0.028; solubility (PBS Solubility (no DMSO)): 21 µM (≈ 7.55 µg/mL); Mouse Plasma Protein Stability % Remaining Avg [7]: 102.6%; Rat Plasma Protein Stability % Remaining Avg [8]: 107.3%; Rat Microsome Stability % Remaining Avg (Rat Microsome Stability): 11.1% |
| CS(=O)(=O)c1ccc(-c2cncc(NCc3cccs3)n2)cn1 [Compound 141] |  | 55% | 10% | 5.497 | 213 nM | 5.579 | 176 nM | 6.4815 | 22.3 nM |  |
| COc1ncc(-c2ccc(S(C)(=O)=O)cc2)nc1NCc1cccs1 [Compound 116] |  |  |  | 4.506 | 108 nM | 4.564 | 99.9 nM |  |  | fraction unbound [9]: 0.025; improvement in potency [4]: ~6 fold |
| CS(=O)(=O)c1ccc(-c2cnc3ccn(Cc4cccs4)c3n2)cc1 [Compound 74] | 2.996 |  |  | 3.899 | 43.2 nM | 3.894 | 47.4 nM | 5.561 | 0.932 nM | COX1 10 minutes pge2/pge2d4 area ratio Avg. LLE (ovine COX-1 (oCOX-1); [17]): 3.046; IC50 (ovine COX-1 (oCOX-1); [18]): 342 nM; IC50 (ovine COX-1 (oCOX-1); [19]): 305 nM; efflux ratio (MDR1): 1; Papp A→B (MDR1; A-B, read-out: MDR1-MCKII Papp A-B): 32.2 ×10⁻⁶ cm/s; Papp B→A (MDR1; B-A, read-out: MDR1-MCKII Papp B-A): 32 ×10⁻⁶ cm/s |
